From US8288410B2, “3-substituted quinolinium and 7H-indolo[2,3-c]quinolinium salts as new antiinfectives” (Florida Agricultural and Mechanical University, priority 2008, dated 2012)
In brackets after ≈: the same amount, converted by molar mass. Where two headings read alike, the source gives them in different places.

Tests used:
[1] = system: Cryptococcus neoformans ATCC 90113; assay: Antifungal susceptibility testing, Cryptococcus neoformans; type: cell-based
Method in brief: (§1)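 Modified NCCLS broth microdilution, samples serially diluted from 20 μg/mL top concentration, inocula per 0.5 McFarland (C. albicans in SDB or RPMI 1640; C. neoformans in SDB; A. fumigatus in YM broth or RPMI-1640 + 5% Alamar Blue). IC50 from percent growth versus concentration; MIC read visually as lowest concentration without detectable growth.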

[2] = system: Vero Cells; assay: Cytotoxicity, Vero cells; type: cell-based
[3] = system: Aspergillus fumigatus ATCC 90906; assay: Antifungal susceptibility testing, Aspergillus fumigatus; type: cell-based; settings: for IC50: ATCC90906, read-out: A fu IC50
Method in brief: as §1

[4] = system: Candida albicans ATTC 90028; assay: Antifungal susceptibility testing, Candida albicans; type: cell-based
Method in brief: as §1

[5] = system: MRSA; assay: Antibacterial susceptibility testing, MRSA; type: cell-based, methicillin resistant Staphylococcus aureus; settings: for IC50 / MFC / MIC: Staphylococcus aureus; for MFC: Table 3, read-out: MRSA MFC
Method in brief: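 MRSA, sourced from the American Type Culture Collection, was tested for susceptibility with a modified National Committee for Clinical Laboratory Standards method. DMSO sample solutions were serially diluted in saline and placed in duplicate in 96 well microplates. Broth-diluted bacterial suspensions, standardized to 0.5 McFarland, brought each well to 200 μL, with the highest test concentration at 20 μg/mL.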

[6] = ATCC90113, Table 2, read-out: Cn IC50
[7] = ATCC90113, Table 2, read-out: Cn MFC
[8] = ATCC90113, Table 2, read-out: Cn MIC
[9] = ATTC90028, Table 2, read-out: Ca IC50
[10] = ATTC90028, Table 2, read-out: Ca MFC
[11] = ATTC90028, Table 2, read-out: Ca MIC

C[C@@H]1[C@H](O)[C@@H](C)/C=C/C=C/C=C/C=C/C=C/C=C/C=C/[C@H](O[C@@H]2O[C@H](C)[C@@H](O)[C@H](N)[C@@H]2O)C[C@@H]2O[C@](O)(C[C@@H](O)C[C@@H](O)[C@H](O)CC[C@@H](O)C[C@@H](O)CC(=O)O[C@H]1C)C[C@H](O)[C@H]2C(=O)O [Amph B, Amphotericin B, reference compound]
Cn IC50 ([1]; Table 1): 0.85 µg/mL | Cn MFC ([1]; Table 1): 2.5 µg/mL | Cn MIC ([1]; Table 1): 2.5 µg/mL | Cn IC50 ([1]; Table 2): 0.85 µg/mL | Cn MFC ([1]; Table 2): 2.5 µg/mL | Cn MIC ([1]; Table 2): 2.5 µg/mL | Cn IC50 ([1]; Table 3): 0.85 µg/mL | Cn MFC ([1]; Table 3): 2.5 µg/mL | Cn MIC ([1]; Table 3): 2.5 µg/mL | TC50 Vero Cells ([2]; Table 1): 6.5 µg/mL (≈ 7.03 µM) | TC50 Vero Cells ([2]; Table 2): 6.5 µg/mL (≈ 7.03 µM) | TC50 Vero Cells ([2]; Table 3): 6.5 µg/mL (≈ 7.03 µM) | A fu MFC [3]: 2.5 µg/mL | A fu MIC [3]: 2.5 µg/mL | A fu IC50 ([3]; Table 1, Aspergillus fumigatus): 0.90 µg/mL | A fu IC50 ([3]; Table 2, Aspergillus fumigatus): 0.90 µg/mL | A fu IC50 ([3]; Table 3, Aspergillus fumigatus): 0.90 µg/mL | Ca IC50 ([4]; Table 1): 0.25 µg/mL | Ca MFC ([4]; Table 1): 1.3 µg/mL | Ca MIC ([4]; Table 1): 0.63 µg/mL | Ca IC50 ([4]; Table 2): 0.25 µg/mL | Ca MFC ([4]; Table 2): 1.3 µg/mL | Ca MIC ([4]; Table 2): 0.63 µg/mL | Ca IC50 ([4]; Table 3): 0.25 µg/mL | Ca MFC ([4]; Table 3): 1.3 µg/mL | Ca MIC ([4]; Table 3): 0.63 µg/mL

O=C(O)c1cn(C2CC2)c2cc(N3CCNCC3)c(F)cc2c1=O [Cipro, Ciprofloxacin, reference compound]
IC50 ([5]; Table 3, read-out: MRSA IC50): 0.09 µg/mL (≈ 0.272 µM) | MFC [5]: > 20 µg/mL | MIC ([5]; Table 3, read-out: MRSA MIC): 0.5 µg/mL (≈ 1.51 µM) | TC50 Vero Cells ([2]; Table 3): >10 µg/mL

C[n+]1cc(N(CCCCCC2CCCCC2)c2ccsc2)cc2ccccc21 [EVK-II-091]
IC50 [1, 6]: 0.45 µg/mL | MFC [1, 7]: 5 µg/mL | MIC [1, 8]: 0.63 µg/mL | IC50 ([5]; Table 2, read-out: MRSA IC50): 0.45 µg/mL | MIC ([5]; Table 2, read-out: MRSA MIC): 0.63 µg/mL | TC50 Vero Cells ([2]; Table 2): >10 µg/mL | A fu MFC [3]: 5.0 µg/mL | A fu MIC [3]: 1.3 µg/mL | IC50 ([3]; Table 2, Aspergillus fumigatus): 0.5 µg/mL | IC50 [4, 9]: 0.8 µg/mL | MFC [4, 10]: > 20 µg/mL | MIC [4, 11]: 1.3 µg/mL

C[n+]1cc(N(CCCCCC2CCCCC2)c2ccc3ccccc3c2)cc2ccccc21 [EVK-III-001]
IC50 [1, 6]: 0.35 µg/mL | MFC [1, 7]: 1.6 µg/mL | MIC [1, 8]: 0.78 µg/mL | IC50 ([5]; Table 2, read-out: MRSA IC50): 0.3 µg/mL | MIC ([5]; Table 2, read-out: MRSA MIC): 0.78 µg/mL | TC50 Vero Cells ([2]; Table 2): 9.0 µg/mL | A fu MFC [3]: 3.1 µg/mL | A fu MIC [3]: 1.6 µg/mL | IC50 ([3]; Table 2, Aspergillus fumigatus): 0.95 µg/mL | IC50 [4, 9]: 0.2 µg/mL | MFC [4, 10]: 3.1 µg/mL | MIC [4, 11]: 0.39 µg/mL

C[n+]1cccc(N(CCCCCC2CCCCC2)c2ccc3ccccc3c2)c1 [EVK-III-002]
IC50 [1, 6]: 0.85 µg/mL | MFC [1, 7]: 1.6 µg/mL | MIC [1, 8]: 1.6 µg/mL | IC50 ([5]; Table 2, read-out: MRSA IC50): 0.45 µg/mL | MIC ([5]; Table 2, read-out: MRSA MIC): 0.78 µg/mL | TC50 Vero Cells ([2]; Table 2): 6.0 µg/mL | A fu MFC [3]: 6.3 µg/mL | A fu MIC [3]: 1.6 µg/mL | IC50 ([3]; Table 2, Aspergillus fumigatus): 1 µg/mL | IC50 [4, 9]: 0.6 µg/mL | MFC [4, 10]: 13 µg/mL | MIC [4, 11]: 1.6 µg/mL

Clc1ccc(Nc2cc3ccccc3[n+](CCCCCC3CCCCC3)c2)cc1.[I-] [JRE-2-83-1]
Cn IC50 ([1]; Table 2): 1.0 µg/mL | Cn MFC ([1]; Table 2): — ((-) = >20 μg/mL) | Cn MIC ([1]; Table 2): 1.6 µg/mL | MRSA IC50 ([5]; Table 2): 0.50 µg/mL | MRSA MFC ([5]; Table 2): 1.6 µg/mL | MRSA MIC ([5]; Table 2): 0.78 µg/mL | TC50 Vero Cells ([2]; Table 2): 12.5 µg/mL | A fu IC50 ([3]; Table 2, Aspergillus fumigatus): — ((-) = >20 μg/mL) | Ca IC50 ([4]; Table 2): 2.0 µg/mL | Ca MFC ([4]; Table 2): — ((-) = >20 μg/mL) | Ca MIC ([4]; Table 2): 25 µg/mL

FC(F)(F)c1ccc2[nH]c3c[n+](CCCCCC4CCCCC4)c4ccccc4c3c2c1.[I-] [JRE-3-4-1]
Cn IC50 ([1]; Table 3): 9.0 µg/mL | Cn MFC ([1]; Table 3): — ((-) = >20 μg/mL) | Cn MIC ([1]; Table 3): — ((-) = >20 μg/mL) | MRSA IC50 ([5]; Table 3): 1.0 µg/mL | MRSA MFC ([5]; Table 3): 3.1 µg/mL | MRSA MIC ([5]; Table 3): 1.6 µg/mL | TC50 Vero Cells ([2]; Table 3): 10.5 µg/mL | A fu IC50 ([3]; Table 3, Aspergillus fumigatus): 10 µg/mL | Ca IC50 ([4]; Table 3): 2.0 µg/mL | Ca MFC ([4]; Table 3): 13 µg/mL | Ca MIC ([4]; Table 3): 6.3 µg/mL

Clc1ccc2c(c1)[nH]c1c[n+](CCCCCC3CCCCC3)c3ccccc3c12.[I-] [JRE-3-10-1]
Cn IC50 ([1]; Table 3): >20 µg/mL | Cn MFC ([1]; Table 3): — ((-) = >20 μg/mL) | Cn MIC ([1]; Table 3): — ((-) = >20 μg/mL) | MRSA IC50 ([5]; Table 3): 5.0 µg/mL | MRSA MFC ([5]; Table 3): — ((-) = >20 μg/mL) | MRSA MIC ([5]; Table 3): 25 µg/mL | TC50 Vero Cells ([2]; Table 3): 9.3 µg/mL | A fu IC50 ([3]; Table 3, Aspergillus fumigatus): >20 µg/mL | Ca IC50 ([4]; Table 3): >20 µg/mL | Ca MFC ([4]; Table 3): — ((-) = >20 μg/mL) | Ca MIC ([4]; Table 3): — ((-) = >20 μg/mL)

C[n+]1cc2c(c3cc(Cl)ccc3n2CCCCCC2CCCCC2)c2ccccc21.[I-] [JRE-3-13-1, 10-Chloro-7-(5-cyclohexyl-pentyl)-5-methyl-7H-indolo[2,3-c]quinolin-5-ium iodide]
IC50 ([1]; ATCC90113, Table 3, read-out: Cn IC50): 0.9 µg/mL | MFC ([1]; ATCC90113, Table 3, read-out: Cn MFC): 1.6 µg/mL | MIC ([1]; ATCC90113, Table 3, read-out: Cn MIC): 1.6 µg/mL | IC50 ([5]; Table 3, read-out: MRSA IC50): 0.5 µg/mL | MFC [5]: 0.8 µg/mL | MIC ([5]; Table 3, read-out: MRSA MIC): 0.8 µg/mL | TC50 Vero Cells ([2]; Table 3): >10 µg/mL | A fu MFC [3]: 25 µg/mL | A fu MIC [3]: 6.3 µg/mL | IC50 ([3]; Table 3, Aspergillus fumigatus): 2 µg/mL | IC50 ([4]; ATTC90028, Table 3, read-out: Ca IC50): 0.9 µg/mL | MFC ([4]; ATTC90028, Table 3, read-out: Ca MFC): 1.6 µg/mL | MIC ([4]; ATTC90028, Table 3, read-out: Ca MIC): 1.6 µg/mL

C[n+]1cc(N(CCCCCC2CCCCC2)c2ccc(C(F)(F)F)cc2)cc2ccccc21.[I-] [JRE-3-20-1]
Cn IC50 ([1]; Table 2): 0.65 µg/mL | Cn MFC ([1]; Table 2): 3.1 µg/mL | Cn MIC ([1]; Table 2): 1.6 µg/mL | MRSA IC50 ([5]; Table 2): 0.40 µg/mL | MRSA MFC ([5]; Table 2): 1.6 µg/mL | MRSA MIC ([5]; Table 2): 0.78 µg/mL | TC50 Vero Cells ([2]; Table 2): 25 µg/mL | A fu MFC [3]: 6.3 µg/mL | A fu MIC [3]: 3.1 µg/mL | A fu IC50 ([3]; Table 2, Aspergillus fumigatus): 1.0 µg/mL | Ca IC50 ([4]; Table 2): 0.65 µg/mL | Ca MFC ([4]; Table 2): 3.1 µg/mL | Ca MIC ([4]; Table 2): 1.6 µg/mL

FC(F)(F)c1ccc(Sc2cc3ccccc3[n+](CCCCCc3ccccc3)c2)cc1.[I-] [XYZ-III-66]
Cn IC50 ([1]; Table 1): 2.0 µg/mL | Cn MFC ([1]; Table 1): 10 µg/mL | Cn MIC ([1]; Table 1): 5.0 µg/mL | TC50 Vero Cells ([2]; Table 1): NC (NC = Not toxic at 10 μg/mL) | A fu IC50 ([3]; Table 1, Aspergillus fumigatus): 3.0 µg/mL | A fu MFC ([3]; Table 1, Aspergillus fumigatus): — ((-) = >20 μg/mL) | A fu MIC ([3]; Table 1, Aspergillus fumigatus): 5.0 µg/mL | Ca IC50 ([4]; Table 1): 5.5 µg/mL | Ca MFC ([4]; Table 1): — ((-) = >20 μg/mL) | Ca MIC ([4]; Table 1): 10 µg/mL

O=C(c1ccc(Cl)cc1)c1cc2ccccc2[n+](CCCCCc2ccccc2)c1.[I-] [XYZ-V-62]
Cn IC50 ([1]; Table 1): 2.0 µg/mL | Cn MFC ([1]; Table 1): 10 µg/mL | Cn MIC ([1]; Table 1): 5.0 µg/mL | MRS IC50 ([5]; Table 1): 0.20 µg/mL | MRS MFC ([5]; Table 1): — ((-) = >20 μg/mL) | MRS MIC ([5]; Table 1): 3.1 µg/mL | A fu IC50 ([3]; Table 1, Aspergillus fumigatus): 10 µg/mL | A fu MFC ([3]; Table 1, Aspergillus fumigatus): — ((-) = >20 μg/mL) | A fu MIC ([3]; Table 1, Aspergillus fumigatus): 20 µg/mL | Ca IC50 ([4]; Table 1): 7.0 µg/mL | Ca MFC ([4]; Table 1): — ((-) = >20 μg/mL) | Ca MIC ([4]; Table 1): 10 µg/mL
